# What was measured:
# Format in all cases: functional
# Haemophilus influenzae [1] = assay: Antibacterial activity against beta-lactamase deficient ampicillin-resistant Haemophilus influenzae assessed as post-antibiotic sub-MIC effect at 0.4 times MIC concentration pretreated with 10 times MIC concentration for 1 hr followed by 1:1000 dilution by viable plate count method
# Streptococcus pneumoniae [2] = assay: Antibacterial activity against penicillin-intermediate Streptococcus pneumoniae assessed as post-antibiotic sub-MIC effect at 0.4 times MIC concentration pretreated with 10 times MIC concentration for 1 hr followed by 1:1000 dilution by viable plate count method
# Streptococcus pneumoniae [3] = assay: Antibacterial activity against penicillin-resistant Streptococcus pneumoniae assessed as sub-MIC effect at 0.2 times MIC concentration incubated for 1 hr by viable plate count method
# Acinetobacter baumannii = assay: Antibacterial activity against multidrug-resistant Acinetobacter baumannii producing OXA-24 and OXA-51 beta-lactamases assessed as sub-MIC effect at 0.4 times MIC concentration incubated for 1 hr by viable plate count method
# Streptococcus pneumoniae [4] = assay: Antibacterial activity against penicillin-susceptible Streptococcus pneumoniae assessed as sub-MIC effect at 0.4 times MIC concentration incubated for 1 hr by viable plate count method
# Staphylococcus aureus [5] = assay: Antibacterial activity against vancomycin-intermediate methicillin-resistant Staphylococcus aureus assessed as sub-MIC effect at 0.2 times MIC concentration incubated for 1 hr by viable plate count method
# Haemophilus influenzae [6] = assay: Antibacterial activity against amoxicillin, clavulanate-resistant Haemophilus influenzae expressing beta-lactamase assessed as post-antibiotic sub-MIC effect at 0.3 times MIC concentration pretreated with 6 times MIC concentration for 1 hr followed by 1:1000 dilution by viable plate count method
# Haemophilus influenzae [7] = assay: Antibacterial activity against amoxicillin, clavulanate-resistant Haemophilus influenzae expressing beta-lactamase assessed as post-antibiotic sub-MIC effect at 0.4 times MIC concentration pretreated with 10 times MIC concentration for 1 hr followed by 1:1000 dilution by viable plate count method
# Staphylococcus aureus [8] = assay: Antibacterial activity against vancomycin-sensitive methicillin-resistant Staphylococcus aureus assessed as sub-MIC effect at 0.3 times MIC concentration incubated for 1 hr by viable plate count method
# Streptococcus pneumoniae [9] = assay: Antibacterial activity against penicillin-susceptible Streptococcus pneumoniae assessed as post-antibiotic sub-MIC effect at 0.3 times MIC concentration pretreated with 10 times MIC concentration for 1 hr followed by 1:1000 dilution by viable plate count method
# Enterobacter cloacae = assay: Antibacterial activity against Enterobacter cloacae by macrodilution method
smiles,measurement,setting,value
CN(C)c1cc(NC(=O)CNC(C)(C)C)c(O)c2c1C[C@H]1C[C@H]3[C@H](N(C)C)C(O)=C(C(N)=O)C(=O)[C@@]3(O)C(O)=C1C2=O [TIGECYCLINE],PAE,Haemophilus influenzae [1],2.8 h
same,PAE,Streptococcus pneumoniae [2],8.8 h
same,PAE,Streptococcus pneumoniae [3],0.5 h
same,PAE,Acinetobacter baumannii,1.9 h
same,PAE,Streptococcus pneumoniae [4],0.8 h
same,PAE,Staphylococcus aureus [5],2 h
same,PAE,Haemophilus influenzae [6],4.7 h
same,PAE,Haemophilus influenzae [7],7.9 h
same,PAE,Staphylococcus aureus [8],0.2 h
same,PAE,Streptococcus pneumoniae [9],8.8 h
same,MIC,Enterobacter cloacae,0.5 µg/mL

# From ChEMBL document CHEMBL1629634, “Postantibiotic effect of tigecycline against 14 gram-positive organisms” (Antimicrob Agents Chemother, 2009)
